Literature values as cited in patent US5705486A, “Isolation of novel peptides from green barley leaf extract and use same to inhibit human platelet aggregation” (Hagiwara; Yoshihide, priority 1996, dated 1998).

Tested on: rat anterior pituitary cells
Conditions: in vitro

Cc1c(C)c2c(c(C)c1OC(=O)CCC(=O)O)CC[C@@](C)(CCC[C@H](C)CCC[C@H](C)CCCC(C)C)O2 [α-tocopherol succinate]
release of growth hormone and/or prolactin from rat anterior pituitary cells (Badamchian et al 1994): enhances the release
prolactin release from rat anterior pituitary cells (Badamchian et al 1995): significant increase
